Where two headings read alike, the source gives them in different places.
Key:
[1] = bovine, in vivo
[2] = bovine, in vivo; remark: listed apart in the source

CC(=O)[C@H]1CC[C@H]2[C@@H]3CCC4=CC(=O)CC[C@]4(C)[C@H]3CC[C@]12C [P4, progesterone]
P4 concentration in the blood stream after decrease [1]: 0.2 to 0.6 ng/mL
P4 concentration in the blood stream, achieved and maintained [1]: 2.0 to 3.0 ng/mL
P4 concentration in the blood stream after decrease [2]: 1.0-1.5 ng per ml
P4 concentration in the blood stream, achieved within 12 hours and maintained [2]: 2.0 to 3.0 ng/mL

— patent US20250381200A1, “SINGLE-INJECTION METHODS AND FORMULATIONS TO CONTROL THE ONSET OF ESTRUS AND OVULATION IN BOVINE, CAPRINE, OVINE, CAMELID AND OTHER FEMALE ANIMALS” (Therio, LLC, priority 2024, published 2025)
